What was measured:
[1] = tested on: GABA; assay: Acute GABA output in hippocampal microdialysate after the 7th daily dose; type: in vivo, C57BI mice; conditions: up to 210 minutes after 7th daily dose, % of basal output, ANOVA p<0.05
Procedure: (§1) Neurotransmitter release patterns in the brain were measured by a procedure which involved inserting a probe into the […] region (microdialysis probe) of a laboratory animal and flushing the probe via dialysis with an artificial cerebrospinal fluid (CSF). This is an accepted and common method used to obtain and measure in vivo brain levels of neurotransmitters and other small […].
(§2) The fluid being collected represents the extracellular or interstitial fluid found in the hippocampal region of the brain. This area is usually the preferred and typical area for microdialysis analysis because any changes measured in this area of the brain are believed to correspond with approximately 80% of whole brain tissue. […]
(§3) For the evaluation, male C57BI mice were divided into groups (6 per group) and administered a variety of compounds or a placebo orally for seven days. […] Each aliquot was then analyzed to determine the amount of GABA, glutamate, and serotonin (5-HT) in each sample. […]
(§4) First, basal output levels of each neurotransmitter were measured to determine any long-term, chronic effects of each compound on the neurotransmitters. […] These levels were determined by averaging the levels of each neurotransmitter in the three, 30-minute aliquots prior to the administration of the 7th daily dose (Sample −90 min to −60, Sample −60 minutes to −30, and Sample −30 minutes to time 0). […]

[2] = tested on: glutamate; assay: Acute glutamate output in hippocampal microdialysate after the 7th daily dose; type: in vivo, C57BI mice; conditions: after 7th daily dose, % of basal output
Procedure: as §1, §2, §3, §4

[3] = tested on: serotonin (5-HT); assay: Basal serotonin (5-HT) output in hippocampal microdialysate after 6 daily oral doses; type: in vivo; conditions: male C57BI mice, basal level before 7th dose, hippocampal dialysate, student's t-test p<0.05
Procedure: as §1, §2, §3, §4

[4] = tested on: Wistar rats; assay: Open-field activity as a measure of sedation; type: in vivo; conditions: PO daily for 14 days, vehicle 9062 ± 597
Procedure: (§5) Wistar rats (16 per group) were dosed either with individual components (L-theanine, magnolia/phellodendron, and milk whey protein) or several combinations of the three, including the three-way combination (theanine+magnolia/phellodendron+milk whey protein). Magnolia/phellodendron combination was provided as a commercially available preparation (RELORA; InterHealth Nutraceuticals, Inc., Benicia, CA). Administered milk whey protein was standardized to 80% alpha-lactalbumin. The rats were dosed daily for 14 days, and then a series of behavioral assays were performed to detect any anxiolytic effects on the rats or sedative effects. The treatment groups were as follows: • 1: L-theanine+magnolia/phellodendron • 2: L-theanine+Milk Whey Protein • 3: magnolia/phellodendron+Milk Whey Protein • 4: L-theanine+magnolia/phellodendron+Milk Whey Protein • 5: L-theanine • 6: magnolia/phellodendron • 7: Milk Whey Protein
Locomotor activity in an open field test is a good measure of the sedative properties of a compound. As one example, a noted side-effect of many anxiolytic compounds such as benzodiazepines is marked sedation in conjunction with administration. […]
This test is performed by placing a rat in an open, brightly lit enclosure. The rats are videotaped, and the total distance the rat travels during the testing period is recorded as an indicator of locomotor activity. […]

[5] = tested on: Wistar rats; assay: Elevated plus-maze (EPM) test; type: in vivo; conditions: PO daily for 14 days, 16 per group, vehicle 10 ± 2
Procedure: as §5
The elevated plus-maze (EPM) capitalizes on the natural aversion (trait anxiety) of rodents on brightly lit, open, and elevated areas. The EPM has very strong predictive ability and is often used to profile the potential anxiolytic activity of compounds. During this test, the rats are videotaped after being placed in the elevated maze. The videos are analyzed to determine the % of time the rats stay in the open, elevated portions of the maze. […]

Structure (SMILES): CCNC(=O)CC[C@H](N)C(=O)O [Compound A, L-theanine]
- acute treatment effect on GABA vs placebo (ANOVA) [1]: no statistically significant treatment effects
- immediate treatment effect on glutamate levels [2]: neither the individual components (A, B, C) nor the combination (A+B+C) had an immediate treatment effect
- effect on basal output of serotonin (5-HT) vs placebo [3]: none of L-theanine, Relora, nor milk whey protein had any significant effect
- Mean Distance (cm) ± SEM [4]: 9971 ± 652 cm
- Mean % Time in open arms ± SEM [5]: 13 ± 2%
